From PMC12162926, “A novel strategy for identifying hepatotoxic constituents in traditional Chinese medicine using dose-normalized intracellular accumulation as a cytotoxicity indicator: a case study of Jinlingzi San” (Frontiers in Pharmacology, 2025)

Key:
[1] = test system: L-02 cells; assay: Cell growth inhibition assay (CCK-8); type: cell-based, human; details: single compounds; for IC50 (cell viability): L-02, 24 h exposure; for IC50: Homo sapiens, L02, L-02, 24 h exposure, read-out: IC50 (cell viability)
[2] = test system: L-02 cells; assay: Intracellular accumulation in L-02 cells by LC–MS/MS; type: in vitro ADME, human; details: for intracellular uptake in the JLZS group compared with the RC group: L-02, JLZS 6.5 mg/mL vs RC 3.25 mg/mL; for intracellular uptake in the JLZS group compared with the RC group / Intracellular concentration: n = 6; for Intracellular concentration: L-02, JLZS extracts 6.5 mg/mL
[3] = Stability of analytes in cell lysates (LC–MS/MS method validation); type: physicochemical; details: n=3; for Post-preparation stability RE%: 4 ℃, 24 h at autosampler; for Short-term stability RE%: 12 h at room temperature; for Long-term stability RE%: -80℃ for a month; for Freeze-thaw stability RE%: three freeze-thaw
Procedure: The stability of seven analytes including short-term stability (12 h at room temperature), post-preparation stability at 4 ℃ (24 h at autosampler), freeze-thaw stability (three freeze-thaw stability) and long-term stability (-80℃ for a month) was tested by analyzing three replicates at low and high QC levels during various sample storage and handling process.

[4] = test system: L-02 cells; assay: Intracellular identification of L-02 cell-uptake components by LC–MS/MS; type: in vitro ADME, human; details: L-02 exposed to JLZS-containing medium 6.5 mg/mL for 2 h
Procedure: The powder of 25 g FT and 25 g RC was evenly blended and then refluxed twice with six-fold 50% ethanol (1: 6, w/v) for 1 h; the collected filtrate was evaporated to dryness and further dissolved in DMSO, after filtering using the 0.22-µm cellulose acetate membrane. JLZS-containing medium (6.5 mg/mL) was freshly prepared by diluting the filtrate with RPMI-1640. Likewise, RC-containing medium was freshly prepared in the same method independently.
L-02 cells were seeded on 9-cm-diameter cell culture plates; after ∼80% confluent, the cultured cells were incubated with 6.5 mg/mL JLZS-containing medium. After 2-h exposure, L-02 cells were quickly washed free of culture medium with cold PBS (−) twice and harvested with 1 mL of 0.25% trypsin-EDTA for cell isolation. The cell suspension (∼5 × 10^6 cells) was spun down, and the cells were further washed twice in cold PBS (−). Then, 200 µL of methanol was used to lyse the collected cells with vortex mixing for 1 min. The cell lysates were centrifuged at 12,000 rpm for 4 min, and 10 μL of the centrifugal supernatant was injected into the LC–MS/MS system for identified analysis.
The LC–MS/MS system consisted of a Thermo TSQ Quantum Ultra triple-quadrupole mass spectrometer equipped with an electrospray ionization source (San Jose, CA, United States). LCquan quantitation software (version 2.5.6, Thermo Fisher Scientific, Waltham, MA, USA) was used to control the LC–MS/MS system for data acquisition and analysis. Analytes and IS separation were conducted using a Waters XTerra® MS C18 column (3.0 mm × 50 mm, 5 µm) maintained at 20 °C. By injecting 5 µL samples with a flow rate of 0.2 mL/min, chromatographic separation was achieved using a mobile phase of 0.1% formic acid–water (A) and methanol (B) via gradient elution, 0.0–2.0 min, 35%–50% B; 2.0–2.1 min, 50%–55% B; 2.1–2.5 min, 55%–60% B; 2.5–14.0 min, 60% B. The analytes and IS were detected in the ESI source by polarity switching from positive for 0.0–8.0 min to negative-ion modes for 8.5–14.0 min in a single run with multiple reaction monitoring (MRM).

[5] = parameters: method as in Gu et al., 2021; details: pharmacokinetic level, JLZS vs single herb; ref Gu et al., 2021; cited from earlier work

Row | Compound | IC50 (cell viability) [1] | Intracellular concentration ([2]; time 0.25 h) [ng/mL] | Intracellular concentration ([2]; time 0.5 h) [ng/mL] | Intracellular concentration ([2]; time 1 h) [ng/mL] | Intracellular concentration ([2]; time 1.5 h) [ng/mL] | Intracellular concentration ([2]; time 2 h) [ng/mL] | Intracellular concentration ([2]; time 3 h) [ng/mL] | Intracellular concentration ([2]; time 5 h) [ng/mL] | Intracellular concentration ([2]; time 8 h) [ng/mL] | Post-preparation stability RE% ([3]; high QC level) [%] | Post-preparation stability RE% ([3]; low QC level) [%] | Short-term stability RE% ([3]; high QC level) [%] | Short-term stability RE% ([3]; low QC level) [%] | Long-term stability RE% ([3]; high QC level) [%] | Long-term stability RE% ([3]; low QC level) [%] | Freeze-thaw stability RE% ([3]; high QC level) [%] | Freeze-thaw stability RE% ([3]; low QC level) [%] | detection in cell lysates [4] | elimination in the JLZS group compared with the single-herb group [5] | also measured
1 | COc1ccc2c(c1OC)CN(C)CCc1cc3c(cc1C(=O)C2)OCO3 [ALL, allocryptopine] | not detected IC50 values within the set concentration range |  |  |  |  |  |  |  |  |  |  |  |  |  |  |  |  |  |  | 
2 | COc1ccc2cc3[n+](cc2c1OC)CCc1cc2c(cc1-3)OCO2 [BER, berberine] |  | 3.2 ± 0.5 | 3.7 ± 0.3 | 5.5 ± 1.3 | 7.2 ± 2.5 | 8.3 ± 4.0 | 10.1 ± 1.7 | 12.3 ± 2.5 | 15.6 ± 4.9 | 3.1 | 1.8 | 2.5 | 5.6 | 1.2 | 1.8 | 6.9 | 5.6 | found in the cell lysates |  | intracellular uptake in the JLZS group compared with the RC group [2]: decreased significantly; IC50 [1]: 41.2 mg/L
3 | c1c2c(cc3c1OCO3)-c1cc3ccc4c(c3c[n+]1CC2)OCO4 [COP, coptisine] |  | 38.3 ± 4.9 | 44.0 ± 11.4 | 67.5 ± 7.7 | 84.4 ± 21.2 | 98.1 ± 34.8 | 134.8 ± 24.4 | 197.6 ± 45.9 | 261.8 ± 60.2 | 6.8 | -0.6 | 6.2 | 5.6 | 6.6 | 4.0 | 5.0 | 0.7 | found in the cell lysates |  | intracellular uptake in the JLZS group compared with the RC group [2]: decreased significantly; dose-normalized intracellular accumulation (ranking) ([2]; ratio of highest intracellular accumulation versus content in JLZS extracts, L-02): the highest; IC50 [1]: 14 mg/L
4 | COc1cc2c(cc1OC)[C@H]1[C@@H](C)c3ccc(OC)c(OC)c3CN1CC2 [COR, corydaline] | not detected IC50 values within the set concentration range |  |  |  |  |  |  |  |  |  |  |  |  |  |  |  |  |  | decreased significantly | 
5 | COc1cc2c(cc1OC)-c1c(C)c3ccc(OC)c(OC)c3c[n+]1CC2 [DHC, dehydrocorydaline] | not detected IC50 values within the set concentration range | 15.2 ± 2.9 | 26.1 ± 3.0 | 53.1 ± 4.0 | 71.9 ± 5.5 | 74.8 ± 6.2 | 82.0 ± 7.5 | 122.0 ± 8.7 | 98.2 ± 9.6 | 6.6 | -0.2 | 8.8 | -2.4 | 1.3 | 2.3 | 0.4 | -0.6 | found in the cell lysates | decreased significantly | 
6 | COc1cc2c(cc1O)CC[n+]1cc3c(OC)c(OC)ccc3cc1-2 [JAT, jatrorrhizine] | not detected IC50 values within the set concentration range | 13.4 ± 0.2 | 13.8 ± 0.8 | 14.9 ± 0.8 | 15.8 ± 1.8 | 16.3 ± 1.9 | 19.6 ± 1.0 | 21.2 ± 3.5 | 26.2 ± 6.0 | 4.7 | -0.2 | 8.0 | 5.3 | 4.0 | 1.9 | 8.0 | 2.9 | found in the cell lysates |  | 
7 | COc1cc2c(cc1OC)-c1cc3ccc(OC)c(OC)c3c[n+]1CC2 [PAL, palmatine] | not detected IC50 values within the set concentration range | 11.6 ± 1.8 | 15.6 ± 2.7 | 29.6 ± 7.9 | 40.2 ± 10.1 | 49.4 ± 19.9 | 65.7 ± 12.4 | 96.9 ± 10.7 | 99.5 ± 24.3 | 6.8 | -1.3 | 2.5 | 6.5 | 0.0 | 6.4 | 6.5 | -3.5 | found in the cell lysates | decreased significantly | 
8 | CN1CCc2cc3c(cc2C(=O)Cc2ccc4c(c2C1)OCO4)OCO3 [PRO, protopine] | not detected IC50 values within the set concentration range |  |  |  |  |  |  |  |  |  |  |  |  |  |  |  |  |  |  | 
9 | C[C@@H]1O[C@@H](OC[C@H]2O[C@@H](Oc3c(-c4ccc(O)c(O)c4)oc4cc(O)cc(O)c4c3=O)[C@H](O)[C@@H](O)[C@@H]2O)[C@H](O)[C@H](O)[C@H]1O [RUT, rutin] | not detected IC50 values within the set concentration range |  |  |  |  |  |  |  |  |  |  |  |  |  |  |  |  |  |  | 
10 | COc1ccc2c(c1OC)CN1CCc3cc4c(cc3C1C2)OCO4 (stereo not drawn) [THB, tetrahydroberberine] | not detected IC50 values within the set concentration range |  |  |  |  |  |  |  |  |  |  |  |  |  |  |  |  |  | decreased significantly | 
11 | c1cc2c(c3c1CC1c4cc5c(cc4CCN1C3)OCO5)OCO2 (stereo not drawn) [THC, tetrahydrocoptisine] | not detected IC50 values within the set concentration range | 15.8 ± 3.0 | 13.3 ± 0.5 | 15.0 ± 2.7 | 17.7 ± 3.6 | 20.3 ± 5.4 | 15.8 ± 2.9 | 15.1 ± 1.4 | 13.3 ± 1.8 | -0.9 | -0.6 | 4.6 | 3.4 | 1.2 | 5.3 | -1.4 | -2.5 | found in the cell lysates | decreased significantly | 
12 | COc1cc2c(cc1OC)[C@@H]1Cc3ccc(OC)c(OC)c3CN1CC2 [THP, tetrahydropalmatine] | not detected IC50 values within the set concentration range |  |  |  |  |  |  |  |  |  |  |  |  |  |  |  |  |  | decreased significantly | 
